The source of these data is patent US7763650B2, “Pharmaceutical compound and method” (Medipharma S.A., priority 2006, dated 2010).

Series [1] concerns Maximal electroshock seizures. The series is described as follows: Maximal electroshock seizure (MES) anticonvulsant test. In kind it is in vivo. The conditions noted are these: mice; for Relative Power in relation to 2-propylpentanoic acid (Valproic acid): MES test; for MES test: Effective doses 50: ip, at time of peak effect, micromols per Kg of mouse weight. The procedure:
In Vivo Experiments: The pharmacological tests were performed according to standard procedures provided by the Antiepileptic Drug Development (ADD) Program of the National Institute of Neurological and Communicative Disorders and Stroke (NINCDS). Anticonvulsant tests: Maximal electroshock seizures were elicited in mice by delivering a 60 Hz/50 mA electrical stimulus for 0.2 sec. via ear clip electrodes. A drop of saline solution applied on each ear before placing the electrodes ensures adequate electrical contact. In these conditions, maximal seizures are produced in virtually all normal mice. The maximal seizure typically consists of a short period of tonic flexion followed by a longer period of tonic extension of the hind limbs and a final clonic episode. Blockade of the hind limbs tonic extensor component due to the drug treatment is taken as the end point. […] Determination of the Time of Peak Effect (TPE): […] The percentages of protection or neurotoxicity are recorded and plotted against time and the TPEs are determined by visual inspection of the graphs. Estimation of the ED50s: Groups of 8 animals per dose are injected via ip. […] The percentages of protection at each dose (converted to probit) were plotted against log-doses.

A further series deals with mice. Put plainly: RotoRod minimal neurotoxicity test. The conditions noted are these: for Protection: Rotorot test on Effective Doses 50: mouse, in vivo. In kind it is in vivo. On the procedure:
In Vivo Experiments: The pharmacological tests were performed according to standard procedures provided by the Antiepileptic Drug Development (ADD) Program of the National Institute of Neurological and Communicative Disorders and Stroke (NINCDS). Neurotoxicity tests: The RotoRod test is used exclusively in mice to assess minimal neurotoxicity. A normal mouse can maintain its equilibrium on a rotating rod (6 rpm) for long periods of time. Neurological deficit is indicated by failure to keep walking on this rotating rod in each of three trials of 1 min each. Estimation of the neurotoxic effects: Groups of 8 animals per dose were injected and tested with the RotoRod test. The percentages of animals showing minimal neurotoxicity were recorded and the higher dose producing neurotoxic effects is reported.

For the compound “(±)-5,6-Di-O-(2-propylpentanoyl)-1,2:3,4-di-O-cyclohexyl-O-myo-inositol [Example 2]”, in series [1], the “Relative Power in relation to 2-propylpentanoic acid (Valproic acid)” value (“Relative Power in relation” below) was 35 and the “MES test: Effective doses 50” value came to 80 µmol/kg. Also, the “Protective index (Rotorod neurotoxic dose / MES ED50)” value in the series on mice (ratio of Rotorod dose to MES ED50, mice) came out at 12.

Take `CCCC(CCC)C(=O)OC1C(O)C(O)C(O)C(O)C1OC(=O)C(CCC)CCC` (racemic) [Example 5, (±)-3,4-Di-O-(2-propylpentanoyl)-myo-inositol]: in series [1], the “Relative Power in relation” value was determined as 35 and the “MES test: Effective doses 50” value is 35 µmol/kg. Moreover, the “Protection: Rotorot test on Effective Doses 50” value in the series on mice is reported as 12.

Consider `CCCC(CCC)C(=O)O` [Valproic acid, valproic acid, reference compound], for which, in series [1], the “Relative Power in relation” value stood at 1 and the “MES test: Effective doses 50” value was determined as 1010 µmol/kg.

Take `CCCC(CCC)C(=O)OC1C(O)C(O)C(OC(=O)C(CCC)CCC)C(OC(=O)C(CCC)CCC)C1OC(=O)C(CCC)CCC` (racemic) [Example 4, (±)-3,4,5,6-tetra-O-(2-propylpentanoyl)-myo-inositol]: in series [1], the “Relative Power in relation” value worked out at 9 and the “MES test: Effective doses 50” value came to 100 µmol/kg. Further, the “Protection: Rotorot test on Effective Doses 50” value with mice is reported as 6.

Regarding `CCCC(CCC)C(=O)O[C@H]1[C@H](OC(=O)C(CCC)CCC)[C@@H](OC(=O)C(CCC)CCC)[C@H](OC(=O)C(CCC)CCC)[C@@H](OC(=O)C(CCC)CCC)[C@H]1OC(=O)C(CCC)CCC` [Example 1, (±)1,2,3,4,5,6-hexa-O-(2-propylpentanoyl)-myo-inositol], the “MES test: Effective doses 50” value in series [1] turned out to be 100 µmol/kg. Further, in the series with mice (mice, dose not given), the “Rotorod: animals showing neurotoxicity / animals tested” value is 0/6.
